Key:
Arabidopsis ovules = assay: Pistil culture experiments with 5-azaC, BR (epiBL), DTBA, H2O2 and sugars, meiosis to apomeiosis; format: cell-based, Arabidopsis thaliana
Source text: (§1) To address redox instability, pistils were exposed to the antioxidant DTBA, an antioxidant that protects thiol groups in proteins from oxidization. To address bioenergetic stress, pistils were exposed to sugars. Glucose signaling is one of the most ancient and central signaling pathways in animals and plants and is involved in gene expression, primary and secondary metabolism, and regulation of growth and development (98). In Arabidopsis, rates of glycolysis and mitochondrial bioenergetics are sensed by TOR, which then control root meristem activation (18). If sufficient sugar is supplied, TOR should be activated. Active TOR protects BZR1 and other important BR-regulated enzymes from degradation, and this leads to plant growth (25). Factorial experiments were designed to test the effects of sucrose, glucose, epiBL, DTBA and 5-azaC on apomixis induction. These were designed for each of three sexual species, B. stricta, arabidopsis and cowpea. The experiments were performed and ratios of apomeiosis to meiosis were documented.
Two factorial experiments were conducted using immature arabidopsis pistils. In the first experiment, no 5-azaC, 5-azaC in the pretreatment only, or 5-azaC in both the pretreatment and the tissue culture medium were tested.
Cytological Analyses. Arabidopsis, Drummond's rockcress and cowpea floral buds were fixed in FAA (v/v: 3.7% formaldehyde, 5% acetic acid, 50% ethanol) for 48 h and cleared in 2:1 benzyl benzoate dibutyl phthalate (BBDP) (80): 1) 70% EtOH, 30 min; 95% EtOH, ≥4 h (2×); 95% EtOH:BBDP (2:1), 2 h; 95% EtOH:BBDP (1:2), 4 h; BBDP, 4 h; BBDP, overnight. Cleared pistils were mounted (up to 16 per slide) and measured from the pedicel base to the top of the stigma. Ovule development stages were studied using a BX53 microscope equipped with differential interference contrast optics and a MicroFire 599809 camera (Olympus, Center Valley, Pa., USA). For chromosome staining, pistils were soaked in 95% ethanol that contained 0.1 mg L^−1 4′,6-diamidino-2-phenylindole (DAPI). Callose was stained by soaking DAPI stained pistils in aqueous aniline blue (Millipore Sigma, Darmstadt, Germany) (124). DAPI fluorescence was detected with a Zeiss LSM 510 confocal microscope with excitation at 408 nm, dichroic reflector at HFT488 nm and detection at 450-650 nm. Callose was distinguished from DAPI by detection at 550-650 nm.
Presence of the following ovule characteristics were recorded: MMCs, Antennaria type diplosporous 1-2 nucleate ES, sexual or Taraxacum type diplosporous dyads, sexual tetrads, sexual or Taraxacum type diplosporous 1-2 nucleate ES, AI and AES. Developmental stages for the majority of ovules per pistil were recorded, and pistil lengths for the following stages (125) were recorded: 1-II, ovule meristems protruding from placentae (precedes MMC formation); 2-IV, meiosis; 3-III, vacuole in immature ES beginning to appear; 4-VI, nuclear divisions in endosperm underway. To determine average timing of meiosis onset, pistils primarily containing premeiotic (2-III) ovules were located under low light conditions 1 h before the lights came on in the morning. Corresponding sepals were marked with a small point permanent marker. Pistils were then randomly harvested for analysis when the lights came on and 3 h thereafter.
Pistils were aseptically excised, but not disinfested, at the early pre-MMC to MMC stages and incubated in vitro. The basal culture medium for arabidopsis and Drummond's rockcress was MS (126) (Caisson Laboratories, Inc., Smithfield, UT USA) with 20 g L^−1 sucrose or glucose and solidified with 1.45 g L^−1 Phytogel (MilliporeSigma).

Arabidopsis embryo sacs = assay: Induction of parthenogenesis and autonomous endosperm formation in pistils; format: cell-based; details: 0.1 μM DTBA on 2% glucose medium for 7 d
Experimental: Scale bars: 50 μm (FIG. 51A), 20 μm (FIGS. 51B-51E).
FIG. 52 Parthenogenesis in putatively diploid Arabidopsis embryo sacs induced by treatment of pistils in emasculated flowers with 2 μM BR or 50 mM glucose. To prevent fertilization, stigmas of pistils were clipped while anthers were immature. These pistils were also treated premeiotically with BR and glucose.
Functional apomixis requires not only apomeiosis but also parthenogenesis and, in plants, endosperm formation.

[1] = test system: B. stricta (Drummond's rockcress) ovules; assay: Pistil culture factorial experiment with sucrose, glucose, epiBL, DTBA and 5-azaC; format: cell-based, Boechera stricta
Source text: as §1
Both the carbohydrate variable and the other components variable were highly significant (P<0.001). Additionally, three ovules from the sucrose plus epiBL treatment (epiBL in the pretreatment and in the medium) had formed aposporous embryo sacs (AES). Also, two ovules, one from the sucrose-epiBL-epiBL treatment and one from the glucose-DTBA-DTBA treatment, had formed Antennaria-type diplosporous embryo sacs (FIGS. 48A-48H).
Cytological Analyses. Arabidopsis, Drummond's rockcress and cowpea floral buds were fixed in FAA (v/v: 3.7% formaldehyde, 5% acetic acid, 50% ethanol) for 48 h and cleared in 2:1 benzyl benzoate dibutyl phthalate (BBDP) (80): 1) 70% EtOH, 30 min; 95% EtOH, ≥4 h (2×); 95% EtOH:BBDP (2:1), 2 h; 95% EtOH:BBDP (1:2), 4 h; BBDP, 4 h; BBDP, overnight. Cleared pistils were mounted (up to 16 per slide) and measured from the pedicel base to the top of the stigma. […] DAPI fluorescence was detected with a Zeiss LSM 510 confocal microscope with excitation at 408 nm, dichroic reflector at HFT488 nm and detection at 450-650 nm. […]
Presence of the following ovule characteristics were recorded: MMCs, Antennaria type diplosporous 1-2 nucleate ES, sexual or Taraxacum type diplosporous dyads, sexual tetrads, sexual or Taraxacum type diplosporous 1-2 nucleate ES, AI and AES. Developmental stages for the majority of ovules per pistil were recorded, and pistil lengths for the following stages (125) were recorded: 1-II, ovule meristems protruding from placentae (precedes MMC formation); 2-IV, meiosis; 3-III, vacuole in immature ES beginning to appear; 4-VI, nuclear divisions in endosperm underway. […]

[2] = test system: cowpea (Vigna unguiculata) ovules; assay: Pistil culture with epiBL, DTBA, epiBL plus DTBA and 5-azaC; format: cell-based; details: compound in pretreatment and culture medium; 24 of 34 ovules in total
Source text: as §1, with “These were designed for each of three sexual species, B. stricta, arabidopsis and cowpea. The experiments were performed and ratios of apomeiosis to meiosis were documented.” left out
Cytological Analyses. […] Cleared pistils were mounted (up to 16 per slide) and measured from the pedicel base to the top of the stigma. […] DAPI fluorescence was detected with a Zeiss LSM 510 confocal microscope with excitation at 408 nm, dichroic reflector at HFT488 nm and detection at 450-650 nm. […]
Presence of the following ovule characteristics were recorded: MMCs, Antennaria type diplosporous 1-2 nucleate ES, sexual or Taraxacum type diplosporous dyads, sexual tetrads, sexual or Taraxacum type diplosporous 1-2 nucleate ES, AI and AES. […]

[3] = test system: B. cf. gunnisoniana ovules; assay: 5-azaC pre-culture soak and pistil culture, Taraxacum-type to Antennaria-type diplospory; format: cell-based; details: 500 μmol L−1 5-azaC (highest concentration)
Experimental: FIG. 38 Frequencies of triploid B. cf. gunnisoniana ovules that were initiating Taraxacum-type diplospory, Polygonum-type sexual development, Antennaria-type diplospory, or Hieracium-type apospory at the end of pistil culture treatment as affected by a 5 min pre-culture soak in solutions containing 5-azacytidine (5-azaC). Pistils were initiated in culture at the 1-I stage. Numbers of ovules per level of 5-azaC averaged 487 and ranged from 288-590.
FIGS. 39A-39C Ovules from pistils of B. gunnisoniana treated at the pre-MMC stage with 5-azaC as a pretreatment solution and then cultured on 5-azaC-containing tissue culture media for 48 h. (FIGS. 39A, 39B) Antennaria-type (A-type) MMC vacuolation. (FIG. 39C) 2-nucleate A-type embryo sac arising directly from an MMC. scale bar: 20 μm.
Thus, if methylation in sexual plants can be prevented, or if DNA can be demethylated, the apomictic pathway might surface as the default pathway. 5-azaC, an inhibitor of DNA-cytosine methyltransferases, produces upon DNA replication hypomethylated DNA. It is a chemical analogue of cytosine that is incorporated into DNA by competition with cytosine during DNA synthesis. In 5-azaC, the carbon-5 of the cytosine ring, which is essential to DNA methyltransferase function, is replaced by nitrogen, and this causes failure of methylation at each 5-azaC site(99). […]

[4] = test system: B. cf. gunnisoniana ovules; details: pre-MMC staged pistils demethylated with 5-azaC; cited from earlier work
[5] = test system: B. cf. gunnisoniana ovules; assay: Pistil culture with BR biosynthesis inhibitor BRZ, H2O2, or both; format: cell-based; details: for shift from apomeiosis (dyad formation) to meiosis (tetrad formation) vs controls: BRZ alone (1.0 μmol), H2O2 alone (500 μmol), or combined
Experimental: Pistils were cultured at the 2-IV stage.
Pistils were cultured at the […].
By a mechanism not yet elucidated (25), TOR stimulates the production of brassinosteroids (BR), which are plant steroids that regulate growth, including many growth and development functions of ovules (25). By dephosphorylation, BR activates BRASSINAZOLE-RESISTANT 1 (BZR1), which is a major BR-regulated transcription factor that targets ca. 2000 genes. Thus, to determine if BR functions downstream of TOR in the apomeiosis meiosis switch, we treated sets of B. cf. gunnisoniana pistils with the BR biosynthesis inhibitor brassinozole (BRZ). Pistils were collected during the 2-III and 2-IV stages.
To determine if apomixis to sex switching by H2O2 involves pathways independent of BR, we compared three treatments to controls, BRZ alone (1.0 μmol), H2O2 alone (500 μmol), and BRZ and H2O2 combined (FIG. 37).

[6] = test system: apomictic Boechera pistils; details: H2O2 applications shortly before apomeiosis; cited from earlier work
[7] = test system: B. retrofracta×stricta ovules; details: 50 and/or 100 mmol L−1 H2O2, 5 min pretreatment of pistils
Source text: (§2) Ovules were scored based on germline development. The following conditions were quantified: i) pre-meiotic megaspore mother cell (MMC), ii) meiotic or diplosporous dyad, iii) sexual tetrad of megaspores, iv) enlarged functional megaspore (FM) with three degenerating megaspores (sexually derived), v) early-stage 1 or 2-nucleate embryo sac with three degenerating megaspore remnants visible, vi) enlarged functional megaspore (FM) with only one degenerating megaspore (derived by Taraxacum-type diplospory), vii) early-stage 1 or 2-nucleate embryo sac with only one degenerating megaspore remnant (derived by Taraxacum-type diplospory), viii) early-stage 1 or 2-nucleate embryo sac with no degenerating megaspores present (derived by Antennaria-type diplospory), ix) presence of one or more enlarged non-vacuolate nucellar cells (aposporous initial, AI) that equal or surpass the size of the meiocyte (meiotically active MMC, dyad or early-stage tetrad), x) enlarged nucellar cell with one or more distinct vacuoles and 1-2 nuclei (early-stage aposporous embryo sac, AES). Because of increased uncertainties, the origins of embryo sacs (sexual, diplosporous or aposporous) were not reported beyond the 2-nucleate stage. Pistil length and the developmental stage of the majority of scorable ovules in the pistil were recorded for each pistil.
(§3) To study the effects of short-term drought on converting apomictic development to sexual development, pistils of apomictic B. retrofracta×stricta, B. cf. gunnisoniana and B. lignifera were excised and cultured at pre-apomeiotic stages of ovule development.
(§4) TARGET OF RAPAMYCIN (TOR) is a major regulator of cell energetics that is highly-conserved among eukaryotes. This serine/threonine protein kinase activates or inactivates enzymes by its serine-threonine phosphorylation function(18). As a regulator of bioenergetics, TOR is inactivated by ROS, and its inactivation suppresses growth.

B. lignifera ovules = details: 50 and/or 100 mmol L−1 H2O2, 5 min pretreatment of pistils
Source text: as §2, §3, §4

[8] = test system: B. cf. gunnisoniana ovules
Source text: as §2, §3, §4

[9] = early MMC staged pistils soaked in DTBA 60 min, cultured on DTBA medium 4 d
[10] = 7 min pretreatment in dilute H2O2

Cl.N[C@H](CS)CCS [DTBA, (S)-2-aminobutane-1,4-dithiol hydrochloride]
ovules with 1st division meiotic restitution (Taraxacum-type diplosporous apomeiosis) (Arabidopsis ovules; [9]): 40% | ovules with megaspores displaced by one or more AES (Arabidopsis ovules; [9]): 18% | parthenogenetic embryo formation (Arabidopsis embryo sacs): Parthenogenetic embryos | number of ovules that formed Antennaria-type diplosporous embryo sacs ([1]; glucose-DTBA-DTBA treatment): one | number of ovules that initiated Antennaria-type diplospory [2]: 8 ovules

Nc1ncn([C@@H]2O[C@H](CO)[C@@H](O)[C@H]2O)c(=O)n1 [5-azaC, 5-azacytidine]
ovules with induced Antennaria-type diplospory [3]: 10% | ovules switched from Taraxacum-type to Antennaria-type diplospory [4]: 10% | Antennaria type diplospory (Arabidopsis ovules; 5-azaC soak, then 5-azaC or BR medium (5/5, 5/B)): occurred in some ovules | ovules with meiosis replaced by Antennaria-type diplosporous embryo sac formation (Arabidopsis ovules; first factorial experiment, 5-azaC in pretreatment and tissue culture media): 6% | onset of aposporous embryo sac formation (Arabidopsis ovules; first factorial experiment, 5-azaC in pretreatment only or pretreatment and medium): effectively induced onset of aposporous embryo sac formation from nucellar cells | treated ovules that developed apomeiotically (Arabidopsis ovules; pre-MMC pistils soaked in 5-azaC 60 min, cultured on control medium or media with 5-azaC, BR, or 5-azaC plus BR and DTBA): Greater than 90% | ovules with Antennaria-type diplospory (Arabidopsis ovules; second factorial experiment, 5-azaC as pretreatment and in culture medium): 26% | ovules that initiated apomixis (AES, Taraxacum-type and Antennaria-type diplospory) (Arabidopsis ovules; second factorial experiment, 5-azaC-treated): 90% | number of ovules that initiated Antennaria-type diplospory [2]: Nine

OO [H2O2, hydrogen peroxide]
shift from apomeiosis (dyad formation) to meiosis (tetrad formation) vs controls [5]: highly significant (p<0.001) shift from apomeiosis (dyad formation) to meiosis (tetrad formation) | shift from apomeiosis to meiosis [6]: high frequency shifts from Taraxacum-type diplosporous apomeiosis to normal meiosis | Taraxacum-type diplosporous ES formation (Arabidopsis ovules; [10]): absent | ovules with surviving megaspores replaced by AES (Arabidopsis ovules; [10]): 13% | switch from apomeiosis to meiosis [7]: effectively switched apomeiosis to meiosis | switch from apomeiosis to meiosis (B. lignifera ovules): effectively switched apomeiosis to meiosis | switch from apomeiosis to meiosis ([8]; 50 and/or 100 mmol L−1 H2O2, 5 min pretreatment of pistils): effectively switched apomeiosis to meiosis | replacement of surviving megaspores of tetrads by aposporous embryo sacs (apospory), ovules ([8]; H2O2 treatments): 30%

OC[C@H]1O[C@@](CO)(O[C@H]2O[C@H](CO)[C@@H](O)[C@H](O)[C@H]2O)[C@@H](O)[C@@H]1O [sucrose]
meiosis termination followed by Taraxacum and Hieracium type ES formation ([1]; glucose instead of sucrose in medium): 26 of 164

CC(O)(c1ccccc1)C(Cc1ccc(Cl)cc1)n1cncn1 (stereo not shown) [BRZ, brassinazole]
shift from apomeiosis (dyad formation) to meiosis (tetrad formation) vs controls [5]: highly significant (p<0.001) shift from apomeiosis (dyad formation) to meiosis (tetrad formation) | shift of reproductive mode by BR synthesis inhibition ([5]; pistils cultured at the 2-IV stage): significant shift (P<0.05) from apomeiosis to meiosis and from apoptosis to apospory

— patent publication US11820994B2, “Methods of inducing apomictic or sexual reproduction” (priority 2018, dated 2023)
